Counter-ions that a name gives are not always drawn. Like-named read-outs stand apart in the source and are kept apart here.
How the values were obtained:
in vitro = conditions: African green monkey
SARS-COV-2 = assay: microbe, parasite or virus in culture; type: cell-based; design: SI (Selectivity Index, CC50/IC50): unit not given here; conditions: for SI (Selectivity Index, CC50/IC50): SARS-COV-2, values >50 assumed to be 50; for IC50: read-out: SARS-COV-2 inhibition (IC50)
[1] = Severe acute respiratory syndrome coronavirus 2, Vero cells, 24 hours infection
[2] = Severe acute respiratory syndrome coronavirus 2, Vero, 24 h

| Structure (SMILES) | CC50 (in vitro) [µM] | SI (Selectivity Index, CC50/IC50) (SARS-COV-2) | IC50 (SARS-COV-2; [1]) [µM] | IC50 (SARS-COV-2; [2]) [µM] |
| --- | --- | --- | --- | --- |
| COc1cc2cc3c(c(-c4cc5c(cc4OC(=O)OC(C)C)OCO5)c2cc1OC)C(=O)OC3 [Example 98, 6-(6,7-dimethoxy-3-oxo-1,3-dihydronaphtho[2,3-c]furan-4-yl)benzo[d][1,3]dioxol-5-yl isopropyl carbonate] | > 50 | 3.18 | 15.7 |  |
| COc1cc2cc3c(c(-c4cnc(N5CCN(C)CC5)nc4)c2cc1OC)C(=O)OC3 [Example 7] | > 50 | 3.74 | 13.4 |  |
| COc1cc2cc3c(c(-c4cc5c(cc4OP(=O)(NCCN4CCOCC4)c4ccccc4)OCO5)c2cc1OC)C(=O)OC3 (stereo not drawn) [Example 280, 6-(6,7-dimethoxy-3-oxo-1,3-dihydronaphtho[2,3-c]furan-4-yl)benzo[d][1,3]dioxol-5-yl N-(2-morpholinoethyl)-P-phenylphosphoramidate] | > 50 | 25.56 |  | 1.96 |
| COc1cc2cc3c(c(-c4cnc(N(C)Cc5ccc(C)o5)nc4)c2cc1OC)C(=O)OC3 [Example 103, 6,7-dimethoxy-9-(2-(methyl((5-methylfuran-2-yl)methyl)amino)pyrimidin-5-yl)naphtho[2,3-c]furan-1(3H)-one hydrochloride] | > 50 | 175.17 |  | 0.29 |
| CCCCN(C)c1ccc(-c2c3c(c(OC)c4cc(OC)c(OC)cc24)C(=O)OC3)cn1.Cl [Example 261, 4-(6-(butyl(methyl)amino)pyridin-3-yl)-6,7,9-trimethoxynaphtho[2,3-c]furan-1(3H)-one] | > 50 | 4.21 |  | 11.9 |
| COc1cc2cc3c(c(-c4ccc(N(C)C5CC5)nc4)c2cc1OC)C(=O)OC3 [Example 171, 9-(6-(cyclopropyl(methyl)amino)pyridin-3-yl)-6,7-dimethoxynaphtho[2,3-c]furan-1(3H)-one] | > 50 | 885.42 | 0.06 |  |
| COc1cc2cc3c(c(-c4ccnc5ccc(F)cc45)c2cc1OC)C(=O)OC3 [Example 148, 9-(6-fluoroquinolin-4-yl)-6,7-dimethoxynaphtho[2,3-c]furan-1(3H)-one] | > 50 | 1.0 | > 50 |  |
| COc1cc2cc3c(c(-c4cnc(OCCN5C[C@@H](C)O[C@@H](C)C5)nc4)c2cc1OC)C(=O)OC3 [Example 54, 9-(2-(2-((2S,6R)-2,6-dimethylmorpholino)ethoxy)pyrimidin-5-yl)-6,7-dimethoxynaphtho[2,3-c]furan-1(3H)-one] | > 50 | 1.00 | > 50 |  |
| COc1cc2cc3c(c(-c4ccc5c(c4)CN(C)CC5)c2cc1OC)C(=O)OC3 [Example 190, 6,7-dimethoxy-9-(2-methyl-1,2,3,4-tetrahydroisoquinolin-7-yl)naphtho[2,3-c]furan-1(3H)-one] | > 50 | 1.73 | 29 |  |
| COc1cc2cc3c(c(-c4cnc(N5CCC[C@H]5C(N)=O)nc4)c2cc1OC)C(=O)OC3 [Example 49, (S)-1-(5-(6,7-dimethoxy-3-oxo-1,3-dihydronaphtho[2,3-c]furan-4-yl)pyrimidin-2-yl) pyrrolidin-2-carboxamide] | > 50 | 1.00 | > 50 |  |
| COc1cc2cc3c(c(-c4cc5c(cc4OC(=O)OC4CCCCC4)OCO5)c2cc1OC)C(=O)OC3 [Example 99, cyclohexyl (6-(6,7-dimethoxy-3-oxo-1,3-dihydronaphtho[2,3-c]furan-4-yl)benzo[d][1,3]dioxol-5-yl)carbonate] | > 50 | 8.70 | 5.75 |  |
| COc1cc2cc3c(c(N4CC(C)CC(C)C4)c2cc1OC)C(=O)OC3 (stereo not drawn) [Example 4, 9-(3,5-dimethylpiperidin-1-yl)-6,7-dimethoxynaphtho[2,3-c]furan-1(3H)-one] | > 50 | 4.45 | 11.2 |  |
| COc1cc2cc3c(c(-c4cc5c(cc4OC(C)=O)OCO5)c2cc1OC)C(=O)OC3 [Example 274, 6-(6,7-dimethoxy-3-oxo-1,3-dihydronaphtho[2,3-c]furan-4-yl)benzo[d][1,3]dioxol-5-yl acetate] | > 50 | 19.61 | 2.55 |  |
| COc1cc2cc3c(c(-c4cncc(OC(C)C)c4)c2cc1OC)C(=O)OC3 [Example 200, 9-(5-isopropoxypyridin-3-yl)-6,7-dimethoxynaphtho[2,3-c]furan-1(3H)-one] | > 50 | 1.77 | 28.2 |  |
| COc1cc2cc3c(c(N4CCc5sccc5C4)c2cc1OC)C(=O)OC3 [Example 3, 9-(6,7-dihydrothieno[3,2-c]pyridin-5 (4H)-yl)-6,7-dimethoxynaphtho[2,3-c]furan-1(3H)-one] | > 50 | 8.48 | 5.89 |  |
| COc1cc2cc3c(c(-c4ccc(N5CCCCC5)cc4)c2cc1OC)C(=O)OC3 [Example 242, 6,7-dimethoxy-9-(4-(piperidin-1-yl)phenyl)naphtho[2,3-c]furan-1(3H)-one] | 10.6 | 5.45 | 1.94 |  |
| CCN(CC)c1ncc(-c2c3c(cc4cc(OC)c(OC)cc24)COC3=O)cn1 [Example 74, 9-(2-(diethylamino)pyrimidin-5-yl)-6,7-dimethoxynaphtho[2,3-c]furan-1(3H)-one] | > 50 | 98.94 | 0.51 |  |
| COCCOc1cncc(-c2c3c(cc4cc(OC)c(OC)cc24)COC3=O)c1 [Example 173, 6,7-dimethoxy-9-(5-(2-methoxyethoxy)pyridin-3-yl)naphtho[2,3-c]furan-1(3H)-one] | > 50 | 1.0 | > 50 |  |
| CCN(CC)c1ccc(-c2c3c(cc4cc(OC)c(OC)cc24)COC3=O)cc1 [Example 249, 9-(4-(diethylamino)phenyl)-6,7-dimethoxynaphtho[2,3-c]furan-1(3H)-one] | > 50 | 100.23 | 0.5 |  |
| COc1cc2cc3c(c(-c4ccc(N(C)C)nc4)c2cc1OC)C(=O)OC3 [Example 163, 9-(6-(dimethylamino)pyridin-3-yl)-6,7-dimethoxynaphtho[2,3-c]furan-1(3H)-one] | > 50 | 885.42 | 0.06 |  |
| COc1cc2cc3c(c(-c4cnc(N(C)C5CCOCC5)nc4)c2cc1OC)C(=O)OC3 [Example 115, 6,7-dimethoxy-9-(2-(methyl(tetrahydro-2H-pyran-4-yl)amino)pyrimidin-5-yl)naphtho[2,3-c]furan-1(3H)-one] | > 50 | 48.62 | 1.03 |  |
| COc1cc2cc3c(c(-c4ccc(N(C)Cc5ccccc5C(F)(F)F)nc4)c2cc1OC)C(=O)OC3 [Example 208, 6,7-dimethoxy-9-(6-(methyl(2-(trifluoromethyl)benzyl)amino)pyridin-3-yl)naphtho[2,3-c]furan-1(3H)-one] | > 50 | 18.96 | 2.64 |  |
